Data published in patent US10188747B2, “Methods and compositions for the treatment of cancer” (THE GENERAL HOSPITAL CORPORATION, priority 2014, dated 2019).

Assays:
[1] = system: SCC13 (skin), SW900 (lung), and SCCO13 (oral) SCC cells; assay: DAPT treatment of SCC cells infected with ERβ-expressing viral vectors, RT-qPCR; format: cell-based, human; settings: DAPT 10 μM, added 24 hours after infection, analysis 72 hours later; involucrin and keratin 10
Experimental: FIG. 9A depicts results of SCC cell lines infected with ERβ-expressing viral vectors versus controls as in FIGS. 8A-8E were analyzed for expression of the indicated proteins by immunoblotting. FIG. 9B depicts graphs of SCC13 (skin), SW900 (lung), and SCCO13 (oral) SCC cells infected with ERβ-expressing and control viral vectors were treated 24 hours after infection with DAPT (10 μM) or DMSO control followed, 72 hours later, by RT-qPCR analysis of involucrin and keratin 10 differentiation marker expression. *P<0.05.
To directly assess the impact of increased ERß signaling in SCC outgrowth, a panel of skin, oral and lung SCC cell lines were infected with ERß expressing versus control viruses. […] To test the in vivo impact of increased ERß expression, representative cell lines from skin (SCC13), head/neck (SCCO13) and lung SCCs (H2170) were assessed by intra-dermal tumorigenicity assays in immune compromised mice (42). Cells infected with the ERß expressing lentivirus formed tumors of similar size as the controls, but enhanced Notch1 expression and differentiation (FIGS. 9C-9D).
Conditions for RT-qPCR, immunoblotting, immunofluorescence and ChIP assays were as previously reported (9, 42). […]

HKCs [2] = assay: DAPT treatment of HKCs infected with Dlx5- and ERβ-expressing retroviruses, RT-qPCR; format: cell-based, human; settings: DAPT 10 μM, added 24 hours after infection, analysis 48 hours later
Experimental: HKCs under differentiating conditions (100% confluence for 3 days: 100% cf+3D) were analyzed in parallel as point of reference. […] FIG. 5B depicts graphs of HKCs with or without infection with EGR3-, DLX5-, and ERβ-expressing retroviruses as in the previous panel were treated with DAPT (10 μM) or DMSO control at 24 hours after infection followed, 48 hours later, by RT-qPCR analysis of involucrin gene expression, with 36β4 for normalization. As an alternative, HKCs stably infected with a shRNA lentivirus against NOTCH1 or empty vector control were superinfected with the EGR3, DLX5, and ERβ expressing retroviruses, followed 72 hours later by RT-qPCR analysis of the same genes. FIG. 5C depicts graphs of HKCs with or without infection with EGR3-, DLX5-, and ERβ-expressing retroviruses as in FIG. 5A were analyzed, 72 hours after infection, by RT-qPCR of the indicated genes. *P<0.001.
Conditions for RT-qPCR, immunoblotting, immunofluorescence and ChIP assays were as previously reported (9, 42). For immunoblotting, unless otherwise indicated, cells were lysed in SDS sample buffer (50 mM Tris-HCl pH 6.8, 2% SDS, 10% glycerol, 0.2 unit nuclease) and protein separation was done in 15-well 4-12% NuPAGE Bis-Tris polyacrylamide gels (Invitrogen). Equal loading controls were done by re-probing the same immunoblots unless otherwise indicated. […]

SCCO13 cells = assay: Intradermal tumorigenicity assay, ERß agonist study; format: in vivo, NOD/SCID mice
Experimental: SCC013 cells were injected intradermally in the left supra-scapular region of NOD/SCID mice (1×10^6 cells per injection). […] Animals were sacrificed 10 days later. Tumor weight and volume were measured, followed by determination of Ki67-labeling index by immunofluorescence analysis of histological section. *P<0.05.
Lenti-virally-infected SCC13, SCCO13 cells and retro-virally infected H2170 cells were suspended in matrigel followed by intra-dermal injection (1.0×10^6 cells in 150 μl per injection) into the back skin of 6 weeks old NOD/SCID mice (Taconic Farms Inc. Germantown, N.Y.) as described (9, 42). To minimize the individual animal variations, cells infected with control and ERß expressing viruses were injected in parallel in the right and left flank of the same mice. Mice were sacrificed for tissue analysis 3 weeks (SCC13 and SCCO13) or 1 week (H2170) after injection. For ERß agonist studies, SCCO13 cells were injected intra-dermally into NOD/SCID mice as described above.

HKCs [3] = assay: Treatment of differentiating HKCs with ER ligands, RT-qPCR and immunoblot analysis; format: cell-based, human; settings: differentiating HKCs (100% confluence), 72 hours; 10 nM E2, 100 nM DPN, 100 nM PPT, 10 nM fulvestrant vs DMSO
Source text: (§1) FIG. 10B depicts graphs of expression of CYP1B1 determined by RT-qPCR in lung and keratinocyte-derived SCC cell lines in parallel with HBECs and HKCs, respectively. […] Data are presented as mean fold change of fluorescence intensity±SD (*P<0.05). FIG. 10D depicts graphs of indicated SCC cells plated in duplicate on Matrigel precoated chambers with spheroid number quantification 10 days later by ImageJ™ analysis of whole-cell images. Data are duplicates±SD (*P<0.05).
(§2) Besides estrogen, other agonists have been developed with elevated specificity for either the ERα or ERß receptors (43).
(§3) Conditions for RT-qPCR, immunoblotting, immunofluorescence and ChIP assays were as previously reported (9, 42). For immunoblotting, unless otherwise indicated, cells were lysed in SDS sample buffer (50 mM Tris-HCl pH 6.8, 2% SDS, 10% glycerol, 0.2 unit nuclease) and protein separation was done in 15-well 4-12% NuPAGE Bis-Tris polyacrylamide gels (Invitrogen). Equal loading controls were done by re-probing the same immunoblots unless otherwise indicated. All assays were done at least twice, with two HKC strains or epidermal samples of independent origin.

SCC cells = assay: Alamar blue cell density assays of SCC cells; format: cell-based, human; settings: Alamar blue density assay, vs DMSO, refreshed every other day
Source text: as §1
Clonogenicity and Alamar Blue assays were as reported (60). For spheroid assays, 8-well chamber slides were coated with matrigel (BDbiosciences, CA; 50 μl per well) and incubated at 37° C. for 20 minutes to allow matrigel to polymerize. SCC cells were brought into suspension in normal culture medium plus 1% matrigel (7000 cells/ml) and added in triplicates to the pre-coated chamber slides (300 μl of cell mixture per well). Medium was refreshed every other day. For organotypic cultures, HKCs were infected with shRNA expressing lentiviruses followed, 48 hours later, by selection for puromycin ([…]) resistance. Selected keratinocyte cultures were reseeded onto collagen gels with embedded J2-3T3 fibroblasts and cultured at the air-liquid interface as previously described (61). […]

[4] = system: skin, oral, and lung SCC cells; assay: Spheroid formation assays of SCC cells in Matrigel; format: cell-based, human; settings: spheroid number 10 days later, vs DMSO
Source text: as §1
In vitro and animal model assays are provided herein which allow the assessment of a given dose of an agonist as described herein. By way of non-limiting example, the effects of a dose of an agonist can be assessed by spheroid assay. A non-limiting example of a protocol for such an assay is as follows: 8-well chamber slides are coated with matrigel (BDbiosciences, CA; 50 μl per well) and incubated at 37° C. for 20 minutes to allow matrigel to polymerize. SCC cells are brought into suspension in normal culture medium plus 1% matrigel (7000 cells/ml) and added in triplicates to the pre-coated chamber slides (300 μl of cell mixture per well). Medium is refreshed every other day. An agonist is added to the medium and cell growth and proliferation measured over time, e.g. by microscopy.
Clonogenicity and Alamar Blue assays were as reported (60). […]

SCC cell lines = assay: Treatment of a panel of SCC cell lines with DPN, Notch1 and differentiation marker expression; format: cell-based, human
Source text: as §1, §2, §3

[5] = SCCO13 tumors, 20 mg/kg daily, data not shown

## C[C@H](NC(=O)Cc1cc(F)cc(F)c1)C(=O)N[C@H](C(=O)OC(C)(C)C)c1ccccc1 [DAPT]
[1]
  induction of differentiation marker expression by increased ERß expression: significantly counteracted
HKCs [2]
  induction of Hey1 and involucrin by enhanced expression of Dlx5 and ERβ: prevented to a large extent

## N#CC(Cc1ccc(O)cc1)c1ccc(O)cc1 (centres unmarked) [DPN, 2,3-bis(4-Hydroxyphenyl)-propionitrile]
SCCO13 cells; SCCO13 cells intradermally, 20 mg/kg intraperitoneally daily for 10 days, vs DMSO vehicle
  tumor size: significantly smaller size
SCCO13 cells; [5]
  Notch1 expression in tumors: increased
  differentiation marker expression in tumors: increased
HKCs [3]
  Notch1 expression: induction
  differentiation marker expression: induction
SCC cells
  proliferation of SCC cell lines: significantly suppressed
[4]
  sphere forming capability of SCC cell lines: significantly suppressed
SCC cell lines
  Notch1 expression: induction
  differentiation marker expression: induction

## C[C@]12CC[C@@H]3c4ccc(O)cc4CC[C@H]3[C@@H]1CC[C@@H]2O [17β-estradiol]
HKCs [3]
  Notch1 expression: induction
  differentiation marker expression: induction

## CCCc1c(-c2ccc(O)cc2)nn(-c2ccc(O)cc2)c1-c1ccc(O)cc1 [PPT, 1,3,5-Tris(4-hydroxyphenyl)-4-propyl-1H-pyrazole]
HKCs [3]
  Notch1 expression: Little or no induction
  differentiation marker expression: Little or no induction

## C[C@]12CC[C@@H]3c4ccc(O)cc4C[C@@H](CCCCCCCCC[S+]([O-])CCCC(F)(F)C(F)(F)F)[C@H]3[C@@H]1CC[C@@H]2O (some centres unmarked) [Fulvestrant]
HKCs [3]
  Notch1 expression: suppressed
  differentiation marker expression: suppressed
